The values below come from patent publication US11034656B2, “Maleate salts of (E)-N-(3-cyano-7-ethoxy-4-((4-phenoxyphenyl)amino) quinolin-6-yl)-4-(dimethylamino)but-2-enamide and crystalline forms thereof” (TELIGENE LTD, priority 2017, dated 2021).

Broadly, the bioavailability is the share of a dose that reaches the circulation, judged against a reference dose that is usually intravenous. Read a low bioavailability as poor availability.

Where a name gives a salt, the structure may show the parent alone. Read-outs that look alike come from different tables or passages of the source.

Data set [1] can be described thus: Crystallinity by PXRD. In kind it is physicochemical. As for the experimental part:
PXRD is performed in Rigaku UltimaIV diffractometer, copper target, λ=1.5406 A; working voltage 40 kv; working current: 40 Ma; scan speed: 60.000 deg./min; scan range: 4.0000->60.0000 deg.

Data set [2] in a line: Hygroscopicity test. In kind it is physicochemical. The following applies: 25° C.±1° C., relative humidity 80%±2%, 24 hours, (m3−m2)/(m2−m1)*100%. The method, then:
Hygroscopicity tests of ((E)-N-(3-cyano-7-ethoxy-4-((4-phenoxyphenyl)amino) quinolin-6-yl)-4-(dimethylamino)but-2-enamide in different acid salts have been carried out by the following method:
Take the dry glass weighing bottle which has a plug (outer diameter is 50 mm, high is 15 mm); placed in a suitable 25° C.±1° C. constant temperature dryer (place a saturated solution of ammonium chloride or ammonium sulfate in the lower part) or artificial climate box (set the temperature to 25° C.±1° C. and the relative humidity to 80%±2%) one day before the test, accurately weighting its weight (m1).
Take appropriate amount of the test sample and lay it in the above weighing bottle, the thickness of the test sample is generally 1 mm, accurately weighting its weight (m2).
Open the weighing bottle and place it at the constant temperature and humidity as above-mentioned for 24 hours with its plug.
Accurately weighting its weight (m3), including the weighing bottle and its plug. Percentage of weight gain=(m3−m2)/(m2−m1)*100%

Data set [3] in a line: Bioavailability in SD rats (I.V. and PO). It counts as in vivo. Conditions: rat, blood, male, I.V. 5 mg/kg, PO 10 mg/kg via gavage.

Turning to `CCOc1cc2ncc(C#N)c(Nc3ccc(Oc4ccccc4)cc3)c2cc1NC(=O)/C=C/CN(C)C` [Hydrochloride acid salt, (E)-N-(3-cyano-7-ethoxy-4-((4-phenoxyphenyl)amino)quinolin-6-yl)-4-(dimethylamino)but-2-enamide Hydrochloride], in data set [1], the “Crystallinity by PXRD” value was “amorphous”. In addition, the “weight gain (%)” value in data set [2] (Hydrochloride) came to 46.67%.

As for `CCOc1cc2ncc(C#N)c(Nc3ccc(Oc4ccccc4)cc3)c2cc1NC(=O)/C=C/CN(C)C` [Sulphate salt, (E)-N-(3-cyano-7-ethoxy-4-((4-phenoxyphenyl)amino)quinolin-6-yl)-4-(dimethylamino)but-2-enamide Sulfate], the “weight gain (%)” value in data set [2] (Sulfate) is reported as 36.13%.

`CCOc1cc2ncc(C#N)c(Nc3ccc(Oc4ccccc4)cc3)c2cc1NC(=O)/C=C/CN(C)C` [L-malate salt, (E)-N-(3-cyano-7-ethoxy-4-((4-phenoxyphenyl)amino)quinolin-6-yl)-4-(dimethylamino)but-2-enamide Malate]: the “Crystallinity by PXRD” value in data set [1] (Malate) is recorded as “amorphous”. Further, the “weight gain (%)” value in data set [2] (Malate) was found to be 16.36%.

`CCOc1cc2ncc(C#N)c(Nc3ccc(Oc4ccccc4)cc3)c2cc1NC(=O)/C=C/CN(C)C.O=C(O)/C=C\C(=O)O` [Maleate salt, (E)-N-(3-cyano-7-ethoxy-4-((4-phenoxyphenyl)amino)quinolin-6-yl)-4-(dimethylamino)but-2-enamide Maleate] returned a bioavailability in data set [3] of 49.6%. Also, in data set [1], the “Crystallinity by PXRD” value is on record as “crytalline”. In data set [2], the “weight gain (%)” value is 0.2%.

The compound `CCOc1cc2ncc(C#N)c(Nc3ccc(Oc4ccccc4)cc3)c2cc1NC(=O)/C=C/CN(C)C` [Citrate salt, (E)-N-(3-cyano-7-ethoxy-4-((4-phenoxyphenyl)amino)quinolin-6-yl)-4-(dimethylamino)but-2-enamide Citrate] registered a bioavailability in data set [3] of 36.7%. In addition, in data set [1] (Citrate), the “Crystallinity by PXRD” value is “crystalline”. Moreover, the “weight gain (%)” value in data set [2] (Citrate) is 27.04%.
